In PubChem BioAssay AID1918939 (Molecular Pharmacology Branch, DTP, NCI, 2023):

Test system: 653999-131-R-J2-PDC complex spheroid viability
Assay: Anticancer human tumor 653999-131-R-J2-PDC patient-derived lung adenocarcinoma cell line growth inhibition
Conditions: for IC50: curve of first compound; for viability, T/C: stronger effect = lower value
How it was run: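 Multicellular complex spheroids of tumor cells with human endothelial cells (HUVEC) and mesenchymal stem cells; the LSD1 inhibitor iadademstat was combined with standard-of-care or investigational agents. Top concentration at or near clinical Cmax, half-log dilutions; final DMSO ≤0.25%.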

[1] = second compound 0.1 µM, first compound 0.0316 µM
[2] = second compound 0.1 µM, first compound 0.1 µM
[3] = second compound 0.1 µM, first compound 0.316 µM
[4] = second compound 0.1 µM, first compound 1 µM
[5] = second compound 0.1 µM, first compound 3.16 µM
[6] = second compound 0.1 µM, first compound 10 µM
[7] = second compound 0.316 µM, first compound 0.0316 µM
[8] = second compound 0.316 µM, first compound 0.1 µM
[9] = second compound 0.316 µM, first compound 0.316 µM
[10] = second compound 0.316 µM, first compound 1 µM
[11] = second compound 0.316 µM, first compound 3.16 µM
[12] = second compound 0.316 µM, first compound 10 µM
[13] = second compound 1 µM, first compound 0.0316 µM
[14] = second compound 1 µM, first compound 0.1 µM
[15] = second compound 1 µM, first compound 0.316 µM
[16] = second compound 1 µM, first compound 1 µM
[17] = second compound 1 µM, first compound 3.16 µM
[18] = second compound 1 µM, first compound 10 µM
[19] = second compound 3.16 µM, first compound 0.0316 µM
[20] = second compound 3.16 µM, first compound 0.1 µM
[21] = second compound 3.16 µM, first compound 0.316 µM
[22] = second compound 3.16 µM, first compound 1 µM
[23] = second compound 3.16 µM, first compound 3.16 µM
[24] = second compound 3.16 µM, first compound 10 µM
[25] = second compound 10 µM, first compound 0.0316 µM
[26] = second compound 10 µM, first compound 0.1 µM
[27] = second compound 10 µM, first compound 0.316 µM
[28] = second compound 10 µM, first compound 1 µM
[29] = second compound 10 µM, first compound 3.16 µM
[30] = second compound 10 µM, first compound 10 µM
[31] = second compound 0.1 µM, first compound 0.00316 µM
[32] = second compound 0.1 µM, first compound 0.01 µM
[33] = second compound 0.316 µM, first compound 0.00316 µM
[34] = second compound 0.316 µM, first compound 0.01 µM
[35] = second compound 1 µM, first compound 0.00316 µM
[36] = second compound 1 µM, first compound 0.01 µM
[37] = second compound 3.16 µM, first compound 0.00316 µM
[38] = second compound 3.16 µM, first compound 0.01 µM
[39] = second compound 10 µM, first compound 0.00316 µM
[40] = second compound 10 µM, first compound 0.01 µM
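Further: spheroids exposed to agents for seven days before readout.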

With `CC(C)c1c(-c2ccccc2)nc2c(C#N)c[nH]n2c1=O` + NC1CCC(NC2CC2c2ccccc2)CC1 the IC50 (second compound 0.1 µM) was > 10 µM, the IC50 (second compound 0.316 µM) was > 10 µM and the IC50 (second compound 1 µM) was > 10 µM. The IC50 (second compound 3.16 µM) was > 10 µM, the IC50 (second compound 10 µM) was > 10 µM and the viability, T/C [1] was 92.5%. For the same compound, the viability, T/C [2] was 97.8%, the viability, T/C [3] was 91.4% and the viability, T/C [4] was 80.6%. It also gave a viability, T/C [5] of 91.8%, a viability, T/C [6] of 91.5% and a viability, T/C [7] of 94.5%. It also gave a viability, T/C [8] of 89.6%, a viability, T/C [9] of 100% and a viability, T/C [10] of 82.3%. For the same compound, the viability, T/C [11] was 85.5%, the viability, T/C [12] was 77.5% and the viability, T/C [13] was 94.2%. The viability, T/C [14] was 105%, the viability, T/C [15] was 92.8% and the viability, T/C [16] was 84.9%. The viability, T/C [17] was 87.2%, the viability, T/C [18] was 85.1% and the viability, T/C [19] was 85.9%. The viability, T/C [20] was 103%, the viability, T/C [21] was 84.6% and the viability, T/C [22] was 95.1%. For the same compound, the viability, T/C [23] was 89%, the viability, T/C [24] was 80% and the viability, T/C [25] was 91.9%. It also gave a viability, T/C [26] of 88.1%, a viability, T/C [27] of 82.6% and a viability, T/C [28] of 78.1%. The viability, T/C [29] was 75.5% and the viability, T/C [30] was 69.4%.
Compound `CC1COCCN1c1cc(-c2ccnn2C)c2ccnc(-c3ccn[nH]3)c2n1` (stereo not given) + NC1CCC(NC2CC2c2ccccc2)CC1 has an IC50 (second compound 0.1 µM) of 0.023 µM, an IC50 (second compound 0.316 µM) of 0.0218 µM and an IC50 (second compound 1 µM) of 0.0353 µM. It also gave an IC50 (second compound 3.16 µM) of 0.0244 µM, an IC50 (second compound 10 µM) of 0.0318 µM and a viability, T/C [31] of 85.9%. It also gave a viability, T/C [32] of 67.7%, a viability, T/C [1] of 42.8% and a viability, T/C [2] of 33%. The viability, T/C [3] was 32.3%, the viability, T/C [4] was 27.1% and the viability, T/C [33] was 79.6%. The viability, T/C [34] was 59%, the viability, T/C [7] was 48.1% and the viability, T/C [8] was 32.3%. The viability, T/C [9] was 28.1%, the viability, T/C [10] was 27.7% and the viability, T/C [35] was 78.1%. It also gave a viability, T/C [36] of 67.7%, a viability, T/C [13] of 52% and a viability, T/C [14] of 35.9%. It also gave a viability, T/C [15] of 33.9%, a viability, T/C [16] of 27.9% and a viability, T/C [37] of 92.2%. The viability, T/C [38] was 64.1%, the viability, T/C [19] was 44.8% and the viability, T/C [20] was 37.3%. The viability, T/C [21] was 31.1%, the viability, T/C [22] was 27.8% and the viability, T/C [39] was 84.4%. For the same compound, the viability, T/C [40] was 68.1%, the viability, T/C [25] was 50.9% and the viability, T/C [26] was 36.5%. It also gave a viability, T/C [27] of 33.5% and a viability, T/C [28] of 30.1%.
With `COc1ccc([C@@H](O)c2cc(-c3ncnc4cc(N5CCOCC5)ccc34)c(F)cc2Cl)nn1` + NC1CCC(NC2CC2c2ccccc2)CC1 the IC50 (second compound 0.1 µM) was 1.83 µM, the IC50 (second compound 0.316 µM) was 1.75 µM and the IC50 (second compound 1 µM) was 2.56 µM. For the same compound, the IC50 (second compound 3.16 µM) was 2.25 µM, the IC50 (second compound 10 µM) was 1.72 µM and the viability, T/C [1] was 97.4%. For the same compound, the viability, T/C [2] was 94.9%, the viability, T/C [3] was 68.8% and the viability, T/C [4] was 61.5%. For the same compound, the viability, T/C [5] was 42%, the viability, T/C [6] was 30.9% and the viability, T/C [7] was 106%. The viability, T/C [8] was 85.3%, the viability, T/C [9] was 74.7% and the viability, T/C [10] was 60.8%. The viability, T/C [11] was 39%, the viability, T/C [12] was 28.1% and the viability, T/C [13] was 96.5%. The viability, T/C [14] was 98%, the viability, T/C [15] was 76.6% and the viability, T/C [16] was 68.5%. It also gave a viability, T/C [17] of 45.7%, a viability, T/C [18] of 29.4% and a viability, T/C [19] of 84.2%. For the same compound, the viability, T/C [20] was 114%, the viability, T/C [21] was 78.1% and the viability, T/C [22] was 65.2%. For the same compound, the viability, T/C [23] was 46.4%, the viability, T/C [24] was 31.5% and the viability, T/C [25] was 108%. For the same compound, the viability, T/C [26] was 98%, the viability, T/C [27] was 72% and the viability, T/C [28] was 57%. It also gave a viability, T/C [29] of 44.6% and a viability, T/C [30] of 29.4%.
With `O=C(C=Cn1cnc(-c2cc(C(F)(F)F)cc(C(F)(F)F)c2)n1)NNc1cnccn1` + NC1CCC(NC2CC2c2ccccc2)CC1 the IC50 (second compound 0.1 µM) was 0.00491 µM, the IC50 (second compound 0.316 µM) was 0.00822 µM and the IC50 (second compound 1 µM) was 0.0127 µM. The IC50 (second compound 3.16 µM) was 0.0111 µM, the IC50 (second compound 10 µM) was 0.00983 µM and the viability, T/C [31] was 53.1%. The viability, T/C [32] was 46.5%, the viability, T/C [1] was 35.8% and the viability, T/C [2] was 30.6%. For the same compound, the viability, T/C [3] was 31.8%, the viability, T/C [4] was 19.6% and the viability, T/C [33] was 57.2%. The viability, T/C [34] was 48.7%, the viability, T/C [7] was 40.9% and the viability, T/C [8] was 34.6%. For the same compound, the viability, T/C [9] was 29.4%, the viability, T/C [10] was 26.2% and the viability, T/C [35] was 53.6%. It also gave a viability, T/C [36] of 50.1%, a viability, T/C [13] of 48% and a viability, T/C [14] of 34.6%. It also gave a viability, T/C [15] of 30.6%, a viability, T/C [16] of 22.4% and a viability, T/C [37] of 64%. The viability, T/C [38] was 46.3%, the viability, T/C [19] was 42.7% and the viability, T/C [20] was 35.4%. For the same compound, the viability, T/C [21] was 29.1%, the viability, T/C [22] was 21.9% and the viability, T/C [39] was 60.4%. It also gave a viability, T/C [40] of 45.5%, a viability, T/C [25] of 41% and a viability, T/C [26] of 40.6%. For the same compound, the viability, T/C [27] was 32.5% and the viability, T/C [28] was 24.2%.
